{"source": "patent US4452786A", "about": "“Condurango glycoside compounds, processes for their preparation, antitumor agents comprising them and compositions” (Zenyaku Kogyo Kabushiki Kaisha, priority 1980, dated 1984)", "key": {"Ehrlich carcinoma": {"tested_on": "Ehrlich carcinoma", "assay": "Screening test against Ehrlich carcinoma, subcutaneous solid type, in mice (T/C of tumor weight on thirtieth day)", "assay_type": "in vivo, ddy male mice", "settings": "intraperitoneally, once per day for ten days, average tumor weight on thirtieth day", "protocol": "The activity of the compounds of the present invention against Ehrlich carcinoma was confirmed by the screening test mentioned below.\nEhrlich carcinoma was employed for the determination of the antitumor properties, and the tumor to be tested was of subcutaneous solid type.\nThe animal group to which the compounds of the present invention were administered consisted of seven mice, whereas the control group consisted of ten mice.\nSix weeks old ddy male mice (body weight: 28-30 g) were employed except for the case where condurango glycoside Ao or Co was administered; in the latter case those weighing 20-26 g and being five weeks old were used.\nThe tumors were transplanted intraperitoneally in the mice. On the seventh day after the transplantation, the well grown cells of the tumors were taken out, and 1.5×10^6 cells (3.0×10^6 cells in the case where condurango glycoside Ao or Co was given) thereof was transplanted subcutaneously in the inguinal region of the mice to form solid tumors. At and after 24 hours after the transplantation, the compounds of the present invention dissolved in physiological saline solutions were administered to the mice intraperitoneally.\nThe volume of the respective solutions administered was 0.2 ml per mouse at one time, and the administration was continued for ten days at a rate of one time per day. Only physiological saline solutions were given to the mice of the control group.\nOn the thirtieth day after the transplantation, the tumors were taken out and measured to get the average weight of the tumors of the mice of the group to which the compounds of the present invention had been administered (T) and that of the control group (C) and to calculate the T/C (%)."}, "[1]": {"assay": "Acute toxicity, intraperitoneal administration to mice, five days observation", "assay_type": "in vivo", "settings": "mouse, in vivo, ip, intraperitoneally, five weeks old ddy male mice", "from_the_text": "(§1) Next, the acute toxicity of the compounds of the present invention is as follows."}, "ddy male mice": {"tested_on": "ddy male mice", "assay": "Acute toxicity, intraperitoneal administration to mice, five days observation", "assay_type": "in vivo", "settings": "intraperitoneally, five weeks old ddy male mice, 7200 min", "from_the_text": "as §1"}}, "data": [{"smiles": "COC1CC(OC2CCC3(C)C(CCC4C3C(OC(=O)C=Cc3ccccc3)C(OC(C)=O)C35COC(C)(O)C3CCC45O)C2)OC(C)C1OC1CC(OC)C(OC2OC(C)C(OC3OC(CO)C(O)C(O)C3O)C(OC)C2O)C(C)O1", "note": "(stereo not drawn) [Condurango glycoside Do, condurango glycoside Do]", "values": [{"measurement": "T/C (%)", "setting": "Ehrlich carcinoma; 8 mg/kg × 10 times", "value": 29.0, "unit": "%"}, {"measurement": "T/C (%)", "setting": "Ehrlich carcinoma; 16 mg/kg × 10 times", "value": 53.8, "unit": "%"}, {"measurement": "T/C (%)", "setting": "Ehrlich carcinoma; 32 mg/kg × 10 times", "value": 9.5, "unit": "%"}, {"measurement": "LD50 at 120 h", "setting": "[1]", "value": 630, "unit": "mg/kg"}]}, {"smiles": "COC1CC(OC2CCC3(C)C(CCC4C3C(OC(=O)C=Cc3ccccc3)C(OC(C)=O)C35COC6(C)OC43CCC65)C2)OC(C)C1OC1CC(OC)C(OC2OC(C)C(OC3OC(CO)C(O)C(O)C3O)C(OC)C2O)C(C)O1", "note": "(stereo not drawn) [Condurango glycoside Bo, condurango glycoside Bo]", "values": [{"measurement": "T/C (%)", "setting": "Ehrlich carcinoma; 8 mg/kg × 10 times", "value": 23.3, "unit": "%"}, {"measurement": "T/C (%)", "setting": "Ehrlich carcinoma; 16 mg/kg × 10 times", "value": 11.8, "unit": "%"}, {"measurement": "T/C (%)", "setting": "Ehrlich carcinoma; 32 mg/kg × 10 times", "value": 10.0, "unit": "%"}, {"measurement": "LD50 at 120 h", "setting": "[1]", "value": 615, "unit": "mg/kg"}]}, {"smiles": "COC1CC(OC2CCC3(C)C(CCC4C3C(OC(=O)C=Cc3ccccc3)C(OC(C)=O)C35COC(C)(OC)C3CCC45O)C2)OC(C)C1OC1CC(OC)C(OC2OC(C)C(OC3OC(CO)C(O)C(O)C3O)C(OC)C2O)C(C)O1", "note": "(stereo not drawn) [20-Iso-O-methyl-condurango glycoside Do, 20-iso-O-methyl-condurango glycoside Do]", "values": [{"measurement": "T/C (%)", "setting": "Ehrlich carcinoma; 8 mg/kg × 10 times", "value": 38.1, "unit": "%"}, {"measurement": "T/C (%)", "setting": "Ehrlich carcinoma; 16 mg/kg × 10 times", "value": 26.3, "unit": "%"}, {"measurement": "T/C (%)", "setting": "Ehrlich carcinoma; 32 mg/kg × 10 times", "value": 18.0, "unit": "%"}, {"measurement": "LD50", "setting": "ddy male mice", "value": 642, "unit": "mg/kg"}]}, {"smiles": "COC1CC(OC2CCC3(C)C(CCC4C3C(OC(=O)C=Cc3ccccc3)C(OC(C)=O)C35COC(C)(OC)C3CCC45O)C2)OC(C)C1OC1CC(OC)C(OC2OC(C)C(OC3OC(CO)C(O)C(O)C3O)C(OC)C2O)C(C)O1", "note": "(stereo not drawn) [20-O-methyl-condurango glycoside Do]", "values": [{"measurement": "T/C (%)", "setting": "Ehrlich carcinoma; 8 mg/kg × 10 times", "value": 16.5, "unit": "%"}, {"measurement": "T/C (%)", "setting": "Ehrlich carcinoma; 16 mg/kg × 10 times", "value": 11.6, "unit": "%"}, {"measurement": "LD50 at 120 h", "setting": "[1]", "value": 603, "unit": "mg/kg"}]}, {"smiles": "COC1CC(OC2CCC3(C)C(CCC4C3C(OC(=O)C=Cc3ccccc3)C(OC(C)=O)C3(C)C(C(C)=O)CCC43O)C2)OC(C)C1OC1CC(OC)C(OC2OC(C)C(OC3OC(CO)C(O)C(O)C3O)C(OC)C2O)C(C)O1", "note": "(stereo not drawn) [Condurango glycoside Ao, condurango glycoside Ao]", "values": [{"measurement": "T/C (%)", "setting": "Ehrlich carcinoma; 8 mg/kg × 10 times", "value": 32.1, "unit": "%"}, {"measurement": "T/C (%)", "setting": "Ehrlich carcinoma; 16 mg/kg × 10 times", "value": 27.3, "unit": "%"}, {"measurement": "LD50 at 120 h", "setting": "[1]", "value": 75, "unit": "mg/kg"}]}, {"smiles": "COC1CC(OC2CCC3(C)C(CCC4C3C(OC(=O)C=Cc3ccccc3)C(OC(C)=O)C3(C)C(C(C)O)CCC43O)C2)OC(C)C1OC1CC(OC)C(OC2OC(C)C(OC3OC(CO)C(O)C(O)C3O)C(OC)C2O)C(C)O1", "note": "(stereo not drawn) [Condurango glycoside Co, condurango glycoside Co]", "values": [{"measurement": "T/C (%)", "setting": "Ehrlich carcinoma; 16 mg/kg × 10 times", "value": 30.8, "unit": "%"}, {"measurement": "T/C (%)", "setting": "Ehrlich carcinoma; 32 mg/kg × 10 times", "value": 20.1, "unit": "%"}, {"measurement": "LD50 at 120 h", "setting": "[1]", "value": 375, "unit": "mg/kg"}]}]}
